Assay results from US12544373B2, “Treatment of cancer, inflammatory diseases and autoimmune diseases” (Usher III Initiative, Inc., priority 2020, dated 2026).
Read-outs that look alike come from different tables or passages of the source.

Experiments:
Assay type in all cases: cell-based, human
Conditions in all cases: for T/C %: 72 h
MAXFTN 401 = assay: CellTiter-Blue Cell Viability Assay (Example 2), breast
Description: (§1) The CellTiter-Blue® Cell Viability Assay was used to assess the viability of cells from various cancer cell lines, in the presence or absence of Compound 85 (at different concentrations). This assay provides a homogeneous, fluorometric method for estimating the number of viable cells present in multi-well plates. Viable cells retain the ability to reduce resazurin to resorufin, which is highly fluorescent. […] The fluorescence produced is proportional to the number of viable cells. There is a linear relationship between cell number and fluorescence.
(§2) Cancer cells (see Table 6) were harvested from exponential phase cultures, counted and plated in 96 well flat-bottom microtiter plates, at a cell density 6,000-20,000 cells/well, depending on the cell line's growth rate. The culture medium was supplemented with 10% (v/v) foetal calf serum and 50 μg/mL gentamicin (140 μL/well). Cultures were incubated at 37° C. and 5% CO2 in a humidified atmosphere.
(§3) Compound 85 was serially diluted in DMSO, and five Compound 85 concentrations in half-log increments were used: 0.03 μM, 0.09 μM, 0.30 μM, 1.0 μM, and 3.0 μM. After 24 h, 10 μL of Compound 85 (dissolved in DMSO) or control (DMSO) medium were added, in duplicates, and left on the cells for another 72 h. Compound 85 solutions were added to the assay plates using a Tecan Freedom EVO 200 robotic platform. The DMSO concentration was kept constant at 0.3% v/v across the assay plate.
(§4) After incubation of up to 72 hours, fluorescence (FU) was measured using the EnSpire® multimode plate reader (Perkin Elmer) (excitation λ=570 nm, emission λ=600 nm).
(§5) Cancer cell lines used: Compound 85's anti-cancer effect was tested in 20 human cancer-cell lines representing nine cancer types (Table 6).
(§6) The percentage of viable cells in the presence of Compound 85 (Test condition, T), at different concentrations, are presented in Table 7 and expressed as a percentage of the number of viable cells in the presence of DMSO without Compound 85 (Control condition, C).
(§7) The relative IC50 is determined as the Compound 85 concentration giving a response halfway between the maximum cell viability signal (i.e., a 100% cell viability, no Compound 85 response) and the minimal viability signal (i.e. maximum cell viability inhibition achieved by Compound 85), in a sigmoidal concentration-effect curve.
(§8) The absolute IC50 is determined as the concentration that is associated with a T/C ratio of 50%.

MAXFHER JIMT-1 = assay: as above
Description: as §1, §2, §3, §4, §5, §6, §7, §8

MAXFTN MDA-MB-453 = assay: as above
Description: as §1, §2, §3, §4, §5, §6, §7, §8

MAXFHER BT-474 = assay: as above
Description: as §1, §2, §3, §4, §5, §6, §7, §8

CNXF U-87 MG = assay: CellTiter-Blue Cell Viability Assay (Example 2), glioblastoma
Description: as §1, §2, §3, §4, §5, §6, §7, §8

CNXF 498 = assay: as above
Description: as §1, §2, §3, §4, §5, §6, §7, §8

CXF LS 174T = assay: CellTiter-Blue Cell Viability Assay (Example 2), colon
Description: as §1, §2, §3, §4, §5, §6, §7, §8

## CC(C)(O)Cn1nc(-c2ccccc2)c2c(Cl)c(-c3ccccc3)nnc21 [Compound 85]
MAXFTN 401
  Absolute IC70: 503 nM
  Relative IC70: 500 nM
MAXFTN 401; 0.03 μM
  T/C %: 99%
MAXFTN 401; 0.095 μM
  T/C %: 99%
MAXFTN 401; 0.3 μM
  T/C %: 87%
MAXFTN 401; 0.95 μM
  T/C %: 3%
MAXFTN 401; 3.0 μM
  T/C %: 1%
MAXFTN 401; read-out: Absolute IC50
  IC50: 429 nM
MAXFTN 401; read-out: Relative IC50
  IC50: 429 nM
MAXFHER JIMT-1
  Absolute IC70: 957 nM
  Relative IC70: 844 nM
MAXFHER JIMT-1; 0.03 μM
  T/C %: 97%
MAXFHER JIMT-1; 0.095 μM
  T/C %: 97%
MAXFHER JIMT-1; 0.3 μM
  T/C %: 96%
MAXFHER JIMT-1; 0.95 μM
  T/C %: 30%
MAXFHER JIMT-1; 3.0 μM
  T/C %: 14%
MAXFHER JIMT-1; read-out: Absolute IC50
  IC50: 742 nM
MAXFHER JIMT-1; read-out: Relative IC50
  IC50: 702 nM
MAXFTN MDA-MB-453
  Absolute IC70: 765 nM
  Relative IC70: 763 nM
MAXFTN MDA-MB-453; 0.03 μM
  T/C %: 101%
MAXFTN MDA-MB-453; 0.095 μM
  T/C %: 97%
MAXFTN MDA-MB-453; 0.3 μM
  T/C %: 101%
MAXFTN MDA-MB-453; 0.95 μM
  T/C %: 3%
MAXFTN MDA-MB-453; 3.0 μM
  T/C %: 1%
MAXFTN MDA-MB-453; read-out: Absolute IC50
  IC50: 719 nM
MAXFTN MDA-MB-453; read-out: Relative IC50
  IC50: 717 nM
MAXFHER BT-474
  Absolute IC70: 1316 nM
  Relative IC70: 1010 nM
MAXFHER BT-474; 0.3 μM
  T/C %: 99%
MAXFHER BT-474; 0.95 μM
  T/C %: 46%
MAXFHER BT-474; 3.0 μM
  T/C %: 17%
MAXFHER BT-474; read-out: Absolute IC50
  IC50: 886 nM
MAXFHER BT-474; read-out: Relative IC50
  IC50: 766 nM
CNXF U-87 MG
  Absolute IC70: 993.8 nM
  Relative IC70: 986.9 nM
CNXF U-87 MG; 0.03 μM
  T/C %: 99%
CNXF U-87 MG; 0.095 μM
  T/C %: 102%
CNXF U-87 MG; 0.3 μM
  T/C %: 102%
CNXF U-87 MG; 0.95 μM
  T/C %: 1%
CNXF U-87 MG; 3.0 μM
  T/C %: 4%
CNXF U-87 MG; read-out: Absolute IC50
  IC50: 940 nM
CNXF U-87 MG; read-out: Relative IC50
  IC50: 935 nM
CNXF 498
  Absolute IC70: 1901 nM
  Relative IC70: 1868 nM
CNXF 498; 0.03 μM
  T/C %: 106%
CNXF 498; 0.095 μM
  T/C %: 107%
CNXF 498; 0.3 μM
  T/C %: 113%
CNXF 498; 0.95 μM
  T/C %: 2%
CNXF 498; 3.0 μM
  T/C %: 1%
CNXF 498; read-out: Absolute IC50
  IC50: 1740 nM
CNXF 498; read-out: Relative IC50
  IC50: 1710 nM
CXF LS 174T
  Absolute IC70: 474 nM
  Relative IC70: 467 nM
CXF LS 174T; 0.03 μM
  T/C %: 96%
CXF LS 174T; 0.095 μM
  T/C %: 96%
CXF LS 174T; 0.3 μM
  T/C %: 72%
CXF LS 174T; 0.95 μM
  T/C %: 5%
CXF LS 174T; 3.0 μM
  T/C %: 3%
CXF LS 174T; read-out: Absolute IC50
  IC50: 383 nM
CXF LS 174T; read-out: Relative IC50
  IC50: 384 nM
